Laboratory results as given in US20250152580A1, “METHODS FOR TREATING IMMUNE DISEASES” (Ascentage Pharma (Suzhou) co., Ltd., priority 2022, published 2025).
Entries after “also recorded” stand apart in the source; their conditions may differ.

Tests used:
Type in all cases: in vivo
[1] = test system: LPS inhalation induced lung neutrophils infiltration model; test: LPS inhalation induced neutrophils infiltration model in C57BL/6 mice; details: Cpd. 4 50 mg/kg oral each day, Cpd. X 50 mg/kg iv twice a week, Cpd. XI 12 mg/kg iv twice a week, week 4-10, compared with Vehicle
Procedure: C57BL/6 mice (6-8 weeks old) were obtained from Shanghai LC Laboratory Animal Co. Ltd. Animals, housed and handled in a temperature-controlled environment with a 12-h light/12-h dark cycle. A total of 60 female C57BL/6J mice will be modeled by atomization inhalation LPS 3 times a week for 10 weeks (adjustments may be made according to animal health status). LPS concentration is at 0.7 mg/mL. On each day of challenge, animals in G1 will receive aerosol inhalation of PBS and intravenous injection of Vehicle; animals in G2 will receive aerosol inhalation of LPS and intravenous injection of Vehicle; animals in G3 will be given aerosol inhalation of LPS and intravenous injection of 50 mg/kg Cpd. X twice a week (D1/4) from week 4-10; animals in G4 will be given aerosol inhalation of LPS and intravenous injection of 12 mg/kg Cpd.XI twice a week (D1/4) from week 4-10; animals in G5 will be given aerosol inhalation of LPS and oral administration of 50 mg/kg Cpd. 4 each day from week 4-10; animals in G6 will be given aerosol inhalation of LPS and oral administration of dexamethasone 1 hour before each challenge. Lungs will be gently lavaged via the tracheal cannula with 0.8 mL of PBS containing 1% BSA and 0.6 mM EDTA 48 hr after the last LPS exposure. The procedure will be repeated twice with 0.8 mL of PBS containing 1% BSA and 0.6 mM EDTA. The bronchoalveolar lavage fluid (BALF) will be centrifuged at 300×g for 5 min at 4° C., the cell pellet will be resuspended in 1.5 mL PBS. Total numbers of neutrophils in BALF will be counted using a hemocytometer.

[2] = test system: OVA induced asthma model; test: OVA (ovalbumin) induced asthma model in Balb/cA mice
Text: Ovalbumin (OVA)-sensitized and challenged BALB/c mice are widely used as an asthma model and are characterized by high levels of serum IgE, airway inflammation, epithelial hypertrophy, goblet cell hyperplasia, and AHR, which are similar to the features observed in human allergic asthma.
Female Balb/cA mice (8 weeks old) were obtained from Shanghai Jihui Laboratory Animal Co. Ltd. Animals were housed and handled in a temperature-controlled environment with a 12-h light/12-h dark cycle. A total of 66 mice were assigned to 6 groups by randomization based on body weight.
Mice in Group 2 are intraperitoneally immunized with OVA (25 μg) emulsified in Imject alum (2.0 mg of Al[OH]3) on day 1. During this sensitization phase, the mice produce anti-OVA IgE antibodies, which bind IgE receptors on mast cells. After this sensitization, the mice are intratracheally challenged with OVA from day 8 today 14, resulting in OVA cross-linked IgE on mast cells and leading to degranulating mast cells. Mice then develop clinical features of asthma. The mice in the Group 1 normal control group were sensitized and challenged with […] (without OVA).
Mice in Group 1 and Group 2 were treated with vehicle for 7 days (po, qd, from day 8 to day 14). Mice in Group 3 were treated with 50 mg/kg Cpd. X for 8 days (iv, biw, day 1 and day 4). Mice in Group 4 were treated with 30 mg/kg Cpd. 4 for 7 days (po, qd, from day 8 to day 14). Mice in Group 5 were treated with 100 mg/kg Cpd. 4 for 7 days (po, qd, from day 8 to day 14). 3 mg/kg dexamethasone was used as positive control which was orally administered to mice in Group 6 for 7 days (qd, from day 8 to day 14). The protocols and procedures involving the care and use of animals were approved by the Institutional Animal Care and Use Committee (IACUC) at KCI (Suzhou, China).
Airway responsiveness was determined invasively based on lung resistance.
After challenge with aerosolized methacholine. Briefly, mice were challenged with methacholine aerosol in increasing concentrations (0, 6.25, 12.5, and 25 mg/mL in saline) on day 13 by using the noninvasive pulmonary function instrument. Data on lung resistance were continuously collected, and mean values were selected to express changes in airway function and regarded as one form of inflammation expression. Data are presented as the airway stenosis index (penh).
Twenty-four hours after the final OVA challenge (on day 15), mice were killed, and BAL cells were collected by means of slow injection of ice-cold PBS into the trachea, which was repeated 3 times. Numbers of cells in BAL fluid were counted with a chamber. Number of eosinophils in a total of 100 cells was counted under a microscope. Results are expressed as percentage of eosinophils of BAL fluid.
Twenty-four hours after the final OVA challenge (on day 15), mice were killed, and the serum was collected. The OVA-specific IgE levels were measured with the method of enzyme linked immunosorbent assay (ELISA) according to manufacturer protocol.
Twenty-four hours after the final OVA challenge (on day 15), mice were killed, and the lung tissue samples were collected and fixed in 4% paraformaldehyde. Then, they were embedded in paraffin and cut into […] sections for histopathological analysis. Lung sections were then stained with hematoxylin and eosin (H&E) to calculate the inflammatory changes. The histopathological score was evaluated microscopically in a blinded manner. Five arbitrarily selected fields of each mouse were photographed with an optical microscope and the images were determined and analyzed in detail. […]

[3] = test system: TNBS induced inflammatory bowel disease (IBD) model; test: TNBS induced inflammatory bowel disease (IBD) model in Balb/c mice; details: 50 mg/kg po qd, mesalamine day −1 to day 6, compared with Vehicle
Text: There are two kinds of IBD: Crohn's disease (CD) and ulcerative colitis (UC). TNBS administration results in a preclinical mouse model replicating clinical Crohn's disease.
Female Balb/c mice (8 weeks old) were obtained from Beijing Vital River Laboratory Animal Co. Ltd. Animals were housed and handled in a temperature-controlled environment with a 12-h light/12-h dark cycle. A total of 50 mice were assigned to 5 groups by randomization based on body weight.
On Day 0, the mice weighing 18-20 g were anesthetized with […] (Easycheck, M2910). The mice were further intra-rectally injected 100 μL 1.5% TNBS solution (final concentration 50% ethanol) in the vehicle group and other treatment groups. For the Sham group, the mice were intra-rectally injected with 50% ethanol at the same volume.
Mice in Group 1 and Group 2 were treated with vehicle for 8 days (po, qd, from day −1 to day 6). Mice in Group 3 were treated with 50 mg/kg Cpd. 4 for 8 days (preventive regimen, po, qd, from day −1 to day 6). Mice in Group 4 were treated with 50 mg/kg Cpd. 4 for 6 days (therapeutic regimen, po, qd, from day 1 to day 6). 50 mg/kg Mesalamine was used as positive control which was orally administered to mice in Group 5 for 8 days (preventive regimen, qd, from day −1 to day 6). The protocols and procedures involving the care and use of animals were approved by the Institutional Animal Care and Use Committee (IACUC) at WuxiApptec (Shanghai, China).
Clinical signs of IBD were assessed every day based on the score of disease activity index (DAI) which was evaluated from three parameters using a scoring system from 0 to 4: stool consistency (0, normal stool; 1, soft but still formed stool; 2, soft and not formed stool; 3, very soft and wet stool; 4, watery diarrhea), bleeding score (0, negative hemoccult; 1, weak positive hemoccult; 2, positive hemoccult; 3, blood trace in stool visible; 4, gross rectal bleeding) and body weight loss (0, no body weight loos; 1, 1-5% body weight loss; 2, 6-10% body weight loss; 3, 11-20% body weight loss; 4, >20% body weight loss).
At the end of induction with TNBS (day 7), the animals were euthanized, dissected and the entire colon was quickly removed and gently cleared of feces.
The entire colon was weighed, and the total length was measured. Colon weight gain and shortening is an indirect marker of inflammation. As expected, colon weight induced by TNBS increased to 336.8±25.15 mg. […] The TNBS-induced colon weight increasement were improved by Cpd. 4 treatment (202.4±3.95 mg for 50 mg/kg Cpd. 4 preventive therapy and 214.4±5.17 mg for 50 mg/kg Cpd. 4 therapeutic therapy) (FIG. 2).
At the end of induction with TNBS, the animals were euthanized, and blood was collected immediately by the heart punctures and used for whole blood cell analysis.
At the end of the study (day 7), the cell suspensions from sham control, model control and Cpd. 4 therapeutic treatment groups were obtained from mesenteric lymph nodes (MLN). Cells were stained with the following florescence-labelled antibodies: APC-Cy7-conjugated anti-mouse CD45, BV510-conjugated anti-mouse CD3e, AF700-conjugated anti-mouse CD8a, BUV395-conjugated anti-mouse CD4, BV421-conjugated anti-mouse CD25, FITC-conjugated anti-mouse Foxp3, BV650-conjugated anti-mouse IFN-γ, BV786-conjugated anti-mouse IL-17A, BB700-conjugated anti-mouse TNF-α, APC-conjugated anti-mouse B220, BV395-conjugated anti-mouse CD3e, BV605-conjugated anti-mouse CD11b, BB700-conjugated anti-mouse CD11c, AF488-conjugated anti-mouse MHCII, BV421-conjugated anti-mouse NK1.1, BV510-conjugated anti-mouse Ly6G, PE-Cy7-conjugated anti-mouse CD107a and PE-CF594-conjugated anti-mouse F4/80. All cells were primarily gated on single and live lymphocytes based on forward scatter (FCS), side scatter (SSC) and live/dead staining buffer. Samples were analyzed on a flow cytometer (BD LSRFortessa) to count the percentage of each subtype of lymphocytes. […]

[4] = test system: IMQ induced psoriasis model; test: IMQ induced psoriasis model in Balb/c mice; details: Cpd. 4 100 mg/kg po qd day 0-6; tofacitinib 30 mg/kg po bid; compared with Vehicle
Text: Imiquimod (IMQ) is a ligand for TLRs (Toll-like receptors) of immune cells (including macrophages, monocytes and plasmacytoid dendritic cells), and therefore contributes to strong activation of the immune system.
Female Balb/c mice (7-8 weeks old) were obtained from B&K Universal Animal Co. Ltd. Animals were housed and handled in a temperature-controlled environment with a 12-h light/12-h dark cycle. A total of 36 mice were assigned to 4 groups by randomization based on body weight (6 mice in normal control group and 10 mice in other 3 groups).
At the beginning of the study on day 0, five groups were administered a daily topical dose of 80 mg of a cream preparation containing 5% IMQ on their hair-free backs to establish a model of IMQ-induced psoriasis for seven consecutive days. The G1 normal control group received appropriate vaseline.
Mice in Group 1 and Group 2 were treated with vehicle for 7 days (po, qd, from day 0 to day 6). Mice in Group 3 were treated with 100 mg/kg Cpd. 4 for 7 days (po, qd, from day 0 to day 6). Mice in Group 4 were treated with 30 mg/kg tofacitinib for 7 days (po, bid, from day 0 to day 6). The protocols and procedures involving the care and use of animals were approved by the Institutional Animal Care and Use Committee (IACUC) at KCI (Suzhou, China).
The severity of skin inflammation was monitored and graded using a modified human scoring system Psoriasis Area Severity Index (PASI). Scaling, thickness, and erythema were scored separately on a scale from 0 to 4:0, none; 1, slight; 2, moderate; 3, marked; and 4, very marked. The total score denotes severity of inflammation. Ear thickness of mice was measured every day from day 0 to day 7.
Ear thickness of mice was measured every day from day 0 to day 7. […] Compared with G1 normal control group, after IMQ treatment, ear swelling was observed indicated by increased ear thickness in G2 group reaching the maximal ear thickness to 0.40±0.02 mm on day 7. Cpd.

[5] = day 15, Cpd. 4 30 and 100 mg/kg po qd, Cpd. X 50 mg/kg iv biw, dexamethasone 3 mg/kg po qd, compared with Vehicle
[6] = Cpd. 4 preventive and therapeutic

Cc1c(S(C)(=O)=O)c(-c2cc(F)cc(N3CCN(c4ccc(NS(=O)(=O)c5ccc(N[C@H](CCN6CCC(C(=O)O)CC6)CSc6ccccc6)c(S(=O)(=O)C(F)(F)F)c5)cc4)CC3)c2)c(-c2ccc(Cl)cc2)n1C(C)C [Cpd. XI]
BALF neutrophils (infiltration in lung) [1]: significantly reduced
BALF neutrophils (infiltration in lung) ([1]; listed as Cpd.XI): significantly reducing the BALF neutrophils

Cc1c(S(C)(=O)=O)c(-c2cc(F)cc(N3CCN(c4ccc(NS(=O)(=O)c5ccc(N[C@H](CCN6CCC(C(=O)OCCCP(=O)(O)O)CC6)CSc6ccccc6)c(S(=O)(=O)C(F)(F)F)c5)cc4)CC3)c2)c(-c2ccc(Cl)cc2)n1C(C)C [Cpd. X]
pathological score in lung tissues (H&E) ([2]; 50 mg/kg iv biw, day 15, vehicle 4.08±0.23): 2.58±0.15
pathological score in lung tissues (in words) ([2]; Cpd. 4 and Cpd. X, compared with Vehicle): significantly ameliorated
percentage of eosinophils in BALF [2, 5]: downregulated markedly; also recorded: significantly downregulated
serum OVA-specific IgE (ELISA) [2, 5]: significantly reduced
airway stenosis index (penh), airway hyper-responsiveness (AHR) ([2]; methacholine challenge day 13, Cpd. 4 30 and 100 mg/kg po qd day 8-14, Cpd. X 50 mg/kg iv biw, dexamethasone 3 mg/kg po qd, compared with Vehicle): significant inhibitory activity; also recorded: significantly reduced
BALF neutrophils (infiltration in lung) [1]: significantly reducing the BALF neutrophils; also recorded: significantly reduced

Nc1ccc(O)c(C(=O)O)c1 [mesalamine, Mesalamine, reference compound]
disease activity index (DAI), clinical score of IBD ([3]; Cpd. 4 preventive (day −1 to day 6) and therapeutic (day 1 to day 6) regimens): significantly lowered DAI
colon length (in words) [3, 6]: significantly increased the colon length
colon weight (in words) [3, 6]: significantly reduced the colon weight

C[C@@H]1CCN(C(=O)CC#N)C[C@@H]1N(C)c1ncnc2[nH]ccc12 [tofacitinib, reference compound]
PASI score (Psoriasis Area Severity Index) [4]: significantly lower PASI
